Where “and” joins values, the source holds several entries; their conditions need not be identical. Equal entries are not always repeated.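 Results reflect a 48-hour exposure of cells in 96-well plates to compound at five concentrations. GI50: concentration for 50% inhibition of growth. TGI is the concentration that stops growth completely.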
Key:
Test in all cases: DTP human tumour cell line panel, 48 h
[1] = tested on: TK-10 renal
[2] = tested on: A549 NSCLC
[3] = tested on: MALME-3M melanoma
[4] = tested on: UACC-257 melanoma
[5] = tested on: MDA-MB-435
[6] = tested on: MOLT-4 leukemia
[7] = tested on: SR leukemia
[8] = tested on: A498 renal
[9] = tested on: OVCAR-3 ovarian
[10] = tested on: SNB-19 CNS

Row | Structure (SMILES) | GI50 [1] [µM] | TGI [1] | GI50 [2] [µM] | TGI [2] | GI50 [3] | TGI [3] | GI50 [4] [µM] | TGI [4] [µM] | GI50 [5] [µM] | TGI [5] | GI50 [6] [µM] | TGI [6] [µM] | GI50 [7] [µM] | TGI [7] | GI50 [8] [µM] | TGI [8] [µM] | GI50 [9] | TGI [9] | GI50 [10] | TGI [10] [µM]
1 | CN1CCN(CCc2cccc(C(=O)c3cnn(-c4ccc(F)cc4)c3N)c2)CC1 | > 25 | > 25 µM | > 25 | > 25 µM | > 25 µM | > 25 µM | > 25 | > 25 | > 25 | > 25 µM | > 25 | > 25 | > 25 | > 25 µM | > 25 | > 25 | > 25 µM | > 25 µM | > 25 µM | > 25
2 | C[C@H](Nc1ncnc2nc[nH]c12)c1cc2cccc(Cl)c2c(=O)n1-c1ccccc1 | 2.8 | 45.5 µM | 24.2 | > 100 µM | 3.51 µM | > 79.5 µM | 8.57 | > 100 | 19.4 | > 100 µM | 6.53 | 51.1 | 24.3 | > 100 µM | 0.0491 | 0.446 | 4.19 µM | > 100 µM | 17.7 µM | > 100
3 | COc1cc(C2c3cc4c(cc3[C@@H](Nc3ccc(C#N)cc3)C3COC(=O)[C@H]23)OCO4)cc(OC)c1O (some centres not stated) | 1.62 | 17.4 µM and 4.49 µM | 0.107 | 6.1 µM and 2.35 µM and 2.96 µM | 0.217 µM and 1.9 µM | 9.66 µM and 2.69 µM and 17.2 µM |  | 33.3 | 1.98 | 50 µM and > 100 µM | 0.0307 |  | 0.468 | 50 µM and > 100 µM |  | 11.4 | 1.81 µM and 2.14 µM | 50 µM and 5.33 µM and 5.32 µM | 0.314 µM and 0.768 µM | 
4 | COc1ccc(N2C(C)=C(C#N)C34C(=O)N(c5ccccc5)C(=O)C3=C(O)C=CC24O)cc1 (configuration not stated) | 21.5 | 89 µM | 26.3 | > 100 µM | 19.2 µM | 53.4 µM | 30.1 | > 100 | 5.5 | 28.7 µM | 21.2 | 71.7 | 5.98 | 50.4 µM | 18.6 | 48.2 | 1.76 µM | 10.4 µM | 18.4 µM | 50.2
5 | CCN(CC)c1ccc(C(=C2C=CC(=[N+](CC)Cc3cccc(S(=O)(=O)O)c3)C=C2)c2ccc(N(CC)Cc3cccc(S(=O)(=O)O)c3)cc2)cc1 | 18.8 | > 100 µM | 4.28 | > 100 µM | 5.52 µM | 53.1 µM | 21 | > 100 | 4.07 | > 100 µM | 11.1 | > 89.7 |  | 0.643 µM | 5.35 | 32.4 | 5.21 µM | 37.4 µM | 14.2 µM | > 100
6 | CN(CCCN)CCCNc1nc2ccccc2c2[nH]c3ccccc3c12 | 0.54 | 3.16 µM | 0.16 | 2.22 µM | 0.115 µM | 0.325 µM | 1.77 | 3.49 | 0.281 | 0.816 µM | 0.186 | 1.24 | 0.381 | 2.25 µM | 1.61 | 3.08 | 0.359 µM | 1.35 µM | 0.229 µM | 0.943
7 | CC(C)(C)C[C@H]1NC(C(=O)NCC[C@H](O)CO)[C@H](c2cccc(Cl)c2)[C@@]12C(=O)Nc1cc(Cl)c(F)cc12 (some centres not stated) | 19.2 | 39.5 µM | 3.13 | 17.4 µM | 0.866 µM | 11.8 µM | 1.75 | 15.9 | 14.1 | 29.6 µM | 2.19 | 8.22 | 1.83 | 10.1 µM | 4.41 | 18.7 | 14.6 µM | 28.1 µM | 21.1 µM | 59.8
8 | C=CCc1c2c(c(OC)c3ccoc13)C(=O)/C(=C/c1ccccc1OC)O2 | 6.5 | > 100 µM | 4.12 | > 100 µM | 19.8 µM | > 100 µM | 6.41 | > 100 | 3.12 | > 100 µM | 3.52 | > 100 | 3.16 | > 100 µM | 5.81 | 79.2 | 3.28 µM | 12.2 µM | 5.83 µM | > 100
9 | ClCCn1c(CCl)nc2ccc(Cl)cc21 | 1.46 | 2.95 µM | 1.76 | 4.24 µM | 0.46 µM | 1.89 µM | 1.62 | 3.49 | 0.692 | 2.12 µM | 0.305 | 0.81 | 0.232 | 4.32 µM | 2.05 | 4.8 | 1.87 µM | 3.45 µM | 2.33 µM | 7.19
10 | COC(=O)[C@]12CC[C@@H](C)[C@H](C)[C@@H]1C1=CC[C@@H]3[C@@]4(C)C[C@@H](OC(C)=O)[C@H](O)[C@@](C)(COC(C)=O)[C@@H]4[C@H](O)C[C@@]3(C)[C@]1(C)CC2 | 2.68 | 8.97 µM | 2.21 | 8.34 µM | 2.36 µM | 6.25 µM | 2.06 | 5.92 | 2.95 | 10.7 µM | 1.66 | 4.24 | 1.72 | 4.31 µM | 2.04 | 7.4 | 2.74 µM | 7.24 µM | 2.78 µM | 
11 | COC1(C(=O)N[C@@H](C)c2ccc(-n3cc(F)cn3)nc2)CCC(c2nc(C)cc(Nc3cc(C)[nH]n3)n2)CC1 (some centres not stated) | 1.96 | 8.97 µM | 1.78 | 16.3 µM | 5.87 µM | 21.7 µM | 10.9 | 26.5 | 8.27 | 21.1 µM | 3.48 | > 100 | 6.14 | > 100 µM | 0.147 | 0.7 | 3.13 µM | 20.6 µM | 2.29 µM | 51.4
12 | CCCC[C@H](NC(=O)[C@H]1CCCN1C)C(=O)N(C)[C@H](C[C@@H](OC(C)=O)c1nc(C(=O)N[C@@H](Cc2ccccc2)C[C@H](C)C(=O)OCC)cs1)C(C)C | 6.88 | > 33.3 µM | 0.0501 | > 33.3 µM |  |  | 7.81 | > 33.3 | < 0.00333 | 0.00655 µM | 0.0258 | 15.5 | < 0.00333 | 5.24 µM | 0.00714 | 0.0841 | 0.0083 µM | 6.38 µM | 0.01 µM | > 33.3
13 | COc1c2c(c3c(c1CCC(=O)O)OC(C)(C)C=C3)OC(C)(C)C=C2 |  | > 100 µM |  | > 100 µM |  | > 100 µM |  | > 100 |  | > 100 µM |  | > 100 |  | > 100 µM |  | > 100 |  | > 100 µM |  | > 100
14 | Nc1c(C(=O)Nc2cccc([N+](=O)[O-])c2)sc2nc3c(cc12)C(O)CCC3 (configuration not stated) | 15.9 | > 100 µM | 5.82 | > 100 µM | 26.9 µM | > 100 µM | > 29.8 | > 100 | 0.403 | 2.78 µM | 5.74 | > 100 | 1.96 | > 100 µM | 2.7 | > 100 | 4.53 µM | > 100 µM | 18.7 µM | > 100
15 | COc1ccc2nc3cc([N+](=O)[O-])ccc3c(NCCCCCN(C)C)c2c1 |  |  | 0.25 | 1.15 µM | 0.233 µM | 1.03 µM | 1.03 | 2.66 | 0.271 | 0.972 µM | 0.105 | 1.04 | 0.159 | 14.1 µM | 1.07 | 2.98 | 1.41 µM | 12.1 µM | 0.301 µM | 1.23
16 | COC(=O)[C@H](Cc1cn(C)cn1)NC(=O)[C@H](Cc1c[nH]c2ccccc12)NC(=O)Nc1cc(C(F)(F)F)cc(C(F)(F)F)c1 | > 10 | > 10 µM | > 10 | > 10 µM | > 10 µM | > 10 µM | > 10 | > 10 | > 10 | > 10 µM | > 10 | > 10 | > 10 | > 10 µM | > 10 | > 10 | > 10 µM | > 10 µM | > 10 µM | > 10
17 | COc1cc(Cl)cc(-c2nn(C(=O)NCCN3CCOCC3)cc2-c2ccncc2)c1 | 8.46 | > 100 µM | 9.97 | > 100 µM | 9.77 µM | > 100 µM | 18.4 | > 100 | 0.604 | 3.61 µM | 3.78 | > 100 | 5.92 | > 100 µM | 3.1 | 35.2 | 2.41 µM | 7.11 µM | 7.58 µM | > 100
18 | Cc1ccc(S(=O)(=O)N2CCSCCSCCSCCSCC2)cc1 |  | > 74.5 µM |  | > 100 µM |  | > 100 µM |  | > 100 |  | > 100 µM |  | > 100 |  | > 100 µM |  | > 74.2 |  | 60.7 µM |  | 47.3
19 | O=C(Cn1ccc(=O)[nH]c1=O)Nc1ccc(C(=O)O)c(O)c1 |  | > 100 µM |  | > 100 µM |  | > 100 µM |  | > 100 |  | > 100 µM |  | > 100 |  | > 100 µM |  | > 100 |  | > 100 µM |  | > 100
20 | COc1ccc(C(=O)/C=C/c2ccc(/C=C/c3cc(OC)c(OC)c(OC)c3)cc2)cc1 |  |  | 4.67 | 80.9 µM | 13.2 µM | > 100 µM | 9 | > 100 | 4.28 | 47.7 µM | 3.49 | > 100 | 1.98 | > 100 µM | 18.6 | > 100 | 3.92 µM | 14.3 µM | 21.1 µM | > 100
21 | Cc1ccc2c(ccc3c[n+]4c5ccccc5ccc4n32)c1 | 4.11 | 25.1 µM | 0.663 | 13.7 µM | 0.316 µM | 1.59 µM | 1.43 | 3.82 | 1.13 | 2.55 µM | 1.65 | 9.65 | 1.47 | 16.7 µM | 0.437 | 5.78 | 0.459 µM | 2.63 µM | 0.494 µM | 3.38
22 | CC(C)(C)C#CC1=C(Br)C(=O)OC1 | 0.36 | 2.26 µM | 1.3 | 8.73 µM | 2.08 µM | 4.91 µM | 0.886 | 4.39 | 7.44 | 24.1 µM | 1.26 | 5.03 | > 100 | > 100 µM | 4.04 | 15.1 | 0.935 µM | 4.28 µM | 24.7 µM | > 100
23 | Cc1sc(C(=O)Nc2cc(C(=O)NCCCN(C)C)n(C)c2)cc1NC(=O)CCCN1C(=O)c2cccc3cccc(c23)C1=O | > 100 | > 100 µM | > 100 | > 100 µM | 26 µM | > 100 µM |  |  | > 100 | > 100 µM | 88.3 | > 100 | > 100 | > 100 µM | > 100 | > 100 | > 100 µM | > 100 µM | > 100 µM | > 100
24 | Nc1ccn(Cc2ccc(C34CC5CC(CC(C5)C3)C4)c(O)c2)c(=O)n1 | > 100 | > 100 µM |  |  | > 100 µM | > 100 µM |  |  | > 100 | > 100 µM | 54.4 | > 100 | > 100 | > 100 µM | 59.4 | > 100 | 58.9 µM | > 100 µM | 89.1 µM | > 100
25 | COC(=O)[C@@H](C)C[C@H](Cc1ccccc1)NC(=O)c1nc([C@@H](C[C@H](C(C)C)N(C)C(=O)[C@@H](NC(=O)[C@H]2CCCCN2C)C(C)C)OC(C)=O)sc1C | > 10.4 | > 16.7 µM | 0.00734 | > 16.7 µM |  |  |  |  | < 0.00167 | < 0.00167 µM | 0.00225 | > 16.7 | < 0.00167 | > 16.7 µM | < 0.00167 | > 3.99 | < 0.00167 µM |  | < 0.00167 µM | > 16.7

Source: PubChem BioAssay (NCI)
